Experimental findings from PubChem BioAssay AID1259407 (Chemical Carcinogenesis Research Information System (CCRIS), 2018) are described below.

For the series, the system named is CCRIS mutagenicity, Ames/micronucleus/aberration tests. As to the kind of experiment: CCRIS mutagenicity studies.
[1] abbreviates: Test System: AMES SALMONELLA TYPHIMURIUM, Strain/Indicator: TA98, Metabolic Activation: NONE, Method: STANDARD PLATE.
Where [2] appears, read: Test System: AMES SALMONELLA TYPHIMURIUM, Strain/Indicator: TA100, Metabolic Activation: NONE, Method: STANDARD PLATE.
[3] abbreviates: Test System: AMES SALMONELLA TYPHIMURIUM, Strain/Indicator: TA98, Metabolic Activation: NONE, Method: PREINCUBATION
The mark [4] stands for this setting: Test System: AMES SALMONELLA TYPHIMURIUM, Strain/Indicator: TA100, Metabolic Activation: NONE, Method: PREINCUBATION

Activity calls are given as the source filed them. The rule behind the calls is not given here.

Consider `ClCCNCCCNc1c2ccccc2nc2c1ccc1cccnc12`, for which the mutagenic call under setting [1] was “active; positive”; the mutagenic call under setting [2] was “active; positive”; the mutagenic call (Test System: AMES SALMONELLA TYPHIMURIUM, Strain/Indicator: TA1535, Metabolic Activation: NONE, Method: STANDARD PLATE) was “inactive; negative”; the mutagenic call (Test System: AMES SALMONELLA TYPHIMURIUM, Strain/Indicator: TA1536, Metabolic Activation: NONE, Method: STANDARD PLATE) is “active; positive”; the mutagenic call (Test System: AMES SALMONELLA TYPHIMURIUM, Strain/Indicator: TA1537, Metabolic Activation: NONE, Method: STANDARD PLATE) was “active; positive”; the mutagenic call (Test System: AMES SALMONELLA TYPHIMURIUM, Strain/Indicator: TA1538, Metabolic Activation: NONE, Method: STANDARD PLATE) was “active; positive”.
On to `CCCOc1ccc(N)cc1N`, for which the mutagenic call is “inactive; negative” (Test System: AMES SALMONELLA TYPHIMURIUM, Strain/Indicator: TA97, Metabolic Activation: RAT, LIVER, S-9, AROCLOR 1254 (4%), Method: STANDARD PLATE); “active; positive” (Test System: AMES SALMONELLA TYPHIMURIUM, Strain/Indicator: TA97, Metabolic Activation: RAT, LIVER, S-9, AROCLOR 1254 (10%), Method: STANDARD PLATE); “active; positive” (Test System: AMES SALMONELLA TYPHIMURIUM, Strain/Indicator: TA1537, Metabolic Activation: RAT, LIVER, S-9, AROCLOR 1254 (4 OR 10%), Method: STANDARD PLATE); “active; positive” (Test System: AMES SALMONELLA TYPHIMURIUM, Strain/Indicator: TA1538, Metabolic Activation: RAT, LIVER, S-9, AROCLOR 1254 (4 OR 10%), Method: STANDARD PLATE).
In the case of `CNc1ccc2nc(C)cnc2c1C`, the mutagenic call is “inactive; negative” under setting [3]; “active; positive” (Test System: AMES SALMONELLA TYPHIMURIUM, Strain/Indicator: TA98, Metabolic Activation: RAT, LIVER, S-9, PCB, Method: PREINCUBATION); “inactive; negative” under setting [4]; “active; positive” (Test System: AMES SALMONELLA TYPHIMURIUM, Strain/Indicator: TA100, Metabolic Activation: RAT, LIVER, S-9, PCB, Method: PREINCUBATION).
In the case of `O[C@@H]1[C@@H]2O[C@@H]2c2c(ccc3cc4ccc5ccccc5c4nc23)[C@H]1O`, the mutagenic call was “active; positive” under setting [3]; “active; positive” under setting [4]; “active; positive” (Test System: CHINESE HAMSTER V-79, Strain/Indicator: V-79/8-AZAGUANINE, Metabolic Activation: NONE, Method: STANDARD PLATE).
In the case of `O=[N+]([O-])c1ccc2oc3ccc([N+](=O)[O-])cc3c2c1`, the mutagenic call reads like this: (Test System: AMES SALMONELLA TYPHIMURIUM, Strain/Indicator: TA98(1,8-DNP6), Metabolic Activation: NONE, Method: PREINCUBATION) “active; positive”; (Test System: AMES SALMONELLA TYPHIMURIUM, Strain/Indicator: TA98(1,8-DNP6), Metabolic Activation: NONE, Method: SUSPENSION) “active; positive”; (Test System: AMES SALMONELLA TYPHIMURIUM, Strain/Indicator: TA98(1,8-DNP6), Metabolic Activation: RAT, LIVER, S-9, PCB (5%), Method: PREINCUBATION) “active; positive”; (Test System: AMES SALMONELLA TYPHIMURIUM, Strain/Indicator: TA98(NR), Metabolic Activation: NONE, Method: PREINCUBATION) “inactive; negative”; (Test System: AMES SALMONELLA TYPHIMURIUM, Strain/Indicator: TA98(NR), Metabolic Activation: NONE, Method: SUSPENSION) “inactive; negative”; (Test System: AMES SALMONELLA TYPHIMURIUM, Strain/Indicator: TA98(NR), Metabolic Activation: RAT, LIVER, S-9 (10%), Method: PREINCUBATION) “active; positive”. Besides, the mutagenic call (Test System: AMES SALMONELLA TYPHIMURIUM, Strain/Indicator: TA98(NR), Metabolic Activation: RAT, LIVER, S-9, 3-METHYLCHOLANTHRENE (10%), Method: PREINCUBATION) is “active; positive”; the mutagenic call (Test System: AMES SALMONELLA TYPHIMURIUM, Strain/Indicator: TA98(NR), Metabolic Activation: RAT, LIVER, S-9, BETA-NAPHTHOFLAVONE (10%), Method: PREINCUBATION) is “active; positive”; the mutagenic call (Test System: AMES SALMONELLA TYPHIMURIUM, Strain/Indicator: TA98(NR), Metabolic Activation: RAT, LIVER, S-9, PCB (5 OR 10%), Method: PREINCUBATION) was “active; positive”; the mutagenic call (Test System: AMES SALMONELLA TYPHIMURIUM, Strain/Indicator: TA98(NR), Metabolic Activation: RAT, LIVER, S-9, PHENOBARBITAL (10%), Method: PREINCUBATION) was “active; positive”; the mutagenic call under setting [3] is “active; positive”; the mutagenic call (Test System: AMES SALMONELLA TYPHIMURIUM, Strain/Indicator: TA98, Metabolic Activation: NONE, Method: SUSPENSION) was “active; positive”. Also, the mutagenic call by setting is: (Test System: AMES SALMONELLA TYPHIMURIUM, Strain/Indicator: TA98, Metabolic Activation: RAT, LIVER, S-9, PCB (5%), Method: PREINCUBATION) “active; positive”; (Test System: AMES SALMONELLA TYPHIMURIUM, Strain/Indicator: TA98, Metabolic Activation: RAT, LIVER, S-9, PCB, Method: SUSPENSION) “active; positive”; under setting [4], “inactive; negative”; (Test System: AMES SALMONELLA TYPHIMURIUM, Strain/Indicator: TA100, Metabolic Activation: NONE, Method: SUSPENSION) “inactive; negative”; (Test System: AMES SALMONELLA TYPHIMURIUM, Strain/Indicator: TA100, Metabolic Activation: RAT, LIVER, S-9, PCB (5%), Method: PREINCUBATION) “inactive; negative”; (Test System: AMES SALMONELLA TYPHIMURIUM, Strain/Indicator: TA100, Metabolic Activation: RAT, LIVER, S-9, PCB, Method: SUSPENSION) “inactive; negative”.
Regarding `Cc1ccc(N(O)C=O)cc1`, the mutagenic call under setting [1] is “inactive; negative”; the mutagenic call (Test System: AMES SALMONELLA TYPHIMURIUM, Strain/Indicator: TA98, Metabolic Activation: RAT, LIVER, S-9, AROCLOR 1254, Method: STANDARD PLATE) was “active; positive”; the mutagenic call under setting [2] was “inactive; negative”; the mutagenic call (Test System: AMES SALMONELLA TYPHIMURIUM, Strain/Indicator: TA100, Metabolic Activation: RAT, LIVER, S-9, AROCLOR 1254, Method: STANDARD PLATE) was “active; positive”.
Consider `CCC[C@@H]1C[C@@H](C(=O)N[C@@H]([C@H]2O[C@H](SC)[C@H](O)[C@@H](O)[C@H]2O)[C@@H](C)O)N(C)C1`, for which the mutagenic call was “active; positive” (End Point: AMES SALMONELLA TYPHIMURIUM, Test System: TA98, Metabolic Activation: NONE, Method: STANDARD PLATE) and “active; positive” (End Point: AMES SALMONELLA TYPHIMURIUM, Test System: TA100, Metabolic Activation: NONE, Method: STANDARD PLATE).
On to `Nc1ccccc1C(=O)OCCc1ccccc1`, for which the mutagenic call is “inactive; negative” (Test System: AMES SALMONELLA TYPHIMURIUM, Strain/Indicator: TA97, Metabolic Activation: HAMSTER, LIVER, S-9, AROCLOR 1254 (10 OR 30%), Method: PREINCUBATION); “inactive; negative” (Test System: AMES SALMONELLA TYPHIMURIUM, Strain/Indicator: TA97, Metabolic Activation: NONE, Method: PREINCUBATION); “inactive; negative” (Test System: AMES SALMONELLA TYPHIMURIUM, Strain/Indicator: TA97, Metabolic Activation: RAT, LIVER, S-9, AROCLOR 1254 (10 OR 30%), Method: PREINCUBATION); “inactive; negative” (Test System: AMES SALMONELLA TYPHIMURIUM, Strain/Indicator: TA98, Metabolic Activation: HAMSTER, LIVER, S-9, AROCLOR 1254 (10 OR 30%), Method: PREINCUBATION); “inactive; negative” under setting [3]; “inactive; negative” (Test System: AMES SALMONELLA TYPHIMURIUM, Strain/Indicator: TA98, Metabolic Activation: RAT, LIVER, S-9, AROCLOR 1254 (10 OR 30%), Method: PREINCUBATION). In addition, the mutagenic call reads like this: (Test System: AMES SALMONELLA TYPHIMURIUM, Strain/Indicator: TA100, Metabolic Activation: HAMSTER, LIVER, S-9, AROCLOR 1254 (10 OR 30%), Method: PREINCUBATION) “inactive; negative”; under setting [4], “inactive; negative”; (Test System: AMES SALMONELLA TYPHIMURIUM, Strain/Indicator: TA100, Metabolic Activation: RAT, LIVER, S-9, AROCLOR 1254 (10 OR 30%), Method: PREINCUBATION) “inactive; negative”; (Test System: AMES SALMONELLA TYPHIMURIUM, Strain/Indicator: TA1535, Metabolic Activation: HAMSTER, LIVER, S-9, AROCLOR 1254 (10 OR 30%), Method: PREINCUBATION) “inactive; negative”; (Test System: AMES SALMONELLA TYPHIMURIUM, Strain/Indicator: TA1535, Metabolic Activation: NONE, Method: PREINCUBATION) “inactive; negative”; (Test System: AMES SALMONELLA TYPHIMURIUM, Strain/Indicator: TA1535, Metabolic Activation: RAT, LIVER, S-9, AROCLOR 1254 (10 OR 30%), Method: PREINCUBATION) “inactive; negative”.
